Where two headings read alike, the source gives them in different places.
Legend:
[1] = system: monoubiquitinated PCNA; test: AlphaLISA assay measuring monoubiquitinated PCNA in MDA-MB-436; format: cell-based; details: read-out: Alpha LISA IC50
Description: Table 1 also indicates IC50 values for exemplary compounds in an AlphaLISA assay measuring monoubiquitinated PCNA in a BRCA1 mutant cell line (MDA-MB-436; column 7).

[2] = target: USP1-UAF1 (Homo sapiens, UniProt O94782); test: Ubiquitin Rhodamine assay for USP1-UAF1 activity; format: biochemical
Protocol: Certain compounds of the disclosure were assessed for USP1-UAF1 activity in a Ubiquitin Rhodamine assay as described in Example 135.

[3] = system: MDA-MB-436 (BRCA1 mutant) cell line; test: Viability assay in BRCA1 mutant cell line MDA-MB-436; format: cell-based; details: BRCA1 mutant MDA-MB-436, read-out: MDA-MB-436 rel IC50
Description: (§1) Table 1 also indicates IC50 values in a viability assay for a non-isogenic pair of BRCA1 mutant (column 5—MDA-MB-436) and BRCA1 WT (column 6—HCC1954) cell lines. These values indicate the effect of treatment with compound on cell survival.

[4] = system: HCC1954 (BRCA1 WT) cell line; test: Viability assay in BRCA1 WT cell line HCC1954; format: cell-based; details: Homo sapiens, read-out: HCC 1954 IC50 rel IC50
Description: as §1

[5] = Homo sapiens, MDA-MB-436, viability

USP1-UAF1, sequence (O94782 whole entry): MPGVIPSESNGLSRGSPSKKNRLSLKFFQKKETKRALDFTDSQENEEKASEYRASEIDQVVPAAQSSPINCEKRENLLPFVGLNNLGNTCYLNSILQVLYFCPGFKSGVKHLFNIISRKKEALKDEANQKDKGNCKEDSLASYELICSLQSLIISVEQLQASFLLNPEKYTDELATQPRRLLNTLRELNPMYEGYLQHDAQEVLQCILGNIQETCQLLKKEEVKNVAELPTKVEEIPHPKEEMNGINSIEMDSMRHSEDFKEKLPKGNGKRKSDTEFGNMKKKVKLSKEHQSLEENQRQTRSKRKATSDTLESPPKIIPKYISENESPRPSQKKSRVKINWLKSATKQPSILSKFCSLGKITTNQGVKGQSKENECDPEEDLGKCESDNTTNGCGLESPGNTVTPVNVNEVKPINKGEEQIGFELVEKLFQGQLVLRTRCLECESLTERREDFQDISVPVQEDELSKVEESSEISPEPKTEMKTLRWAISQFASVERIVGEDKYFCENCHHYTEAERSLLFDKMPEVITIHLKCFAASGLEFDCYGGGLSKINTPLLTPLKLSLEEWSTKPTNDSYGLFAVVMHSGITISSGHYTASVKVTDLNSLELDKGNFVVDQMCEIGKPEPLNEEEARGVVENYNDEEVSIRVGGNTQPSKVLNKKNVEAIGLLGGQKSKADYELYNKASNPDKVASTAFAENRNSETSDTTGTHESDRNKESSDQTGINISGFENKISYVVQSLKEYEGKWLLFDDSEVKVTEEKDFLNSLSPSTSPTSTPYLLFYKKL
USP1-UAF1, sequence (Q8TAF3 whole entry partner): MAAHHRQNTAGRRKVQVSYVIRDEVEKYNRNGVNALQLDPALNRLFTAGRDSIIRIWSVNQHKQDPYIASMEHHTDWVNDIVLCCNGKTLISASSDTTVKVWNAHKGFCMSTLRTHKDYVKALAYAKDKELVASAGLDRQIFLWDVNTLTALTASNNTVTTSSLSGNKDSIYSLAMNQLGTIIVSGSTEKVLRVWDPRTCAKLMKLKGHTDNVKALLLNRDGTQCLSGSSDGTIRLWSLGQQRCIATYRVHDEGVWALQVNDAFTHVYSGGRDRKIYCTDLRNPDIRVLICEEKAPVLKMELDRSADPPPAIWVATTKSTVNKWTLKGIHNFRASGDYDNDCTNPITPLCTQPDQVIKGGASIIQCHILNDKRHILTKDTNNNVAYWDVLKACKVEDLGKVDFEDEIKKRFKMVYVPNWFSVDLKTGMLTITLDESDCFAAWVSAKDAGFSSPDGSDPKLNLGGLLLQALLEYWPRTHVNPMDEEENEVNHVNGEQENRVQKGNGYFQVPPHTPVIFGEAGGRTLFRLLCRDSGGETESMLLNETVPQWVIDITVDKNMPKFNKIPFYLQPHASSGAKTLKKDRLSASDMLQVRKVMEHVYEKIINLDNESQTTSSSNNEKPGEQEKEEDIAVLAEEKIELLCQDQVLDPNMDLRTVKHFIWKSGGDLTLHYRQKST

IC50 ([1]; Homo sapiens) [nM]	IC50 [2] [nM]	IC50 ([3]; viability) [nM]	IC50 [1] [nM]	IC50 [4] [nM]	IC50 [3, 5] [nM]	Compound
100 to 250	100 to 10000	250 to 10000				COc1ncnc(C2CC2)c1-c1ncc2[nH]cc([C@@](C)(O)c3ccc(-c4nc(C(F)(F)F)cn4C)cc3)c2n1 (single isomer, unassigned) [Compound 76]
	30 to 100	100 to 250	100 to 250			COc1ncnc(C2CC2)c1-c1ncc2[nH]cc([C@@](C)(O)c3ccc(-c4nc(C(F)(F)F)cn4C)cc3)c2n1 (single isomer, unassigned) [Compound 4]
< 100	< 30					COc1ncnc(C2CC2)c1-c1ncc2c(n1)c(Cc1ccc(-c3nc(C(F)(F)F)cn3C3CC3)cc1)cn2C [Compound 25]
< 100				250 to 10000	< 100	Cn1cc(C(F)(F)F)nc1-c1ccc(Cc2c[nH]c3cnc(-c4c(C(F)(F)F)cnn4C)nc23)cc1 [Compound 179, 7-[[4-[1-methyl-4-(trifluoromethyl)imidazol-2-yl]phenyl]methyl]-2-[2-methyl-4-(trifluoromethyl)pyrazol-3-yl]-5H-pyrrolo[3,2-d]pyrimidine]
	≥ 10000			≥ 10000	≥ 10000	Cn1cc(C(F)(F)F)nc1-c1ccc(Cc2c[nH]c3cnc(-c4cccnc4O)nc23)cc1 [Compound 56, 3-[7-([4-[1-methyl-4-(trifluoromethyl)imidazol-2-yl]phenyl]methyl)-5H-pyrrolo[3,2-d]pyrimidin-2-yl]pyridin-2-ol]
	≥ 10000			≥ 10000	≥ 10000	CCn1c(C(F)(F)F)cnc1-c1ccc(C(O)c2c[nH]c3cnc(-c4c(OC)ncnc4C4CC4)nc23)cc1 (centres unmarked) [Compound 75]
	100 to 10000			≥ 10000	250 to 10000	Cn1cc(C(F)(F)F)nc1-c1ccc(C(O)c2c[nH]c3cnc(-c4c(C(F)(F)F)cnn4C)nc23)cc1 (centres unmarked) [Compound 108, [4-[1-methyl-4-(trifluoromethyl)imidazol-2-yl]phenyl]-[2-[2-methyl-4-(trifluoromethyl)pyrazol-3-yl]-5H-pyrrolo[3,2-d]pyrimidin-7-yl]methanol]
	≥ 10000			≥ 10000	≥ 10000	CN(C)Cc1ccccc1-c1ncc2[nH]cc(C(O)c3ccc(-c4nc(C(F)(F)F)cn4C)cc3)c2n1 (centres unmarked) [Compound 3]
	< 30			≥ 10000	< 100	Cn1cc(C(F)(F)F)nc1-c1ccc(Cc2n[nH]c3cnc(-c4c(Cl)ccnc4C4CC4)nc23)cc1 [Compound 156, 5-(4-chloro-2-cyclopropylpyridin-3-yl)-3-(4-(1-methyl-4-(trifluoromethyl)-1H-imidazol-2-yl)benzyl)-1H-pyrazolo[4,3-d]pyrimidine]
	100 to 10000			≥ 10000	250 to 10000	COCCc1[nH]c2cnc(-c3c(OC)ncnc3C3CC3)nc2c1C(O)c1ccc(-c2nc(C(F)(F)F)cn2C)cc1 (centres unmarked) [Compound 109, [2-(4-cyclopropyl-6-methoxy-pyrimidin-5-yl)-6-(2-methoxyethyl)-5H-pyrrolo[3,2-d]pyrimidin-7-yl]-[4-[1-methyl-4-(trifluoromethyl)imidazol-2-yl]phenyl]methanol]
< 100	< 30				< 100	COc1ncnc(C2CC2)c1-c1ncc2[nH]cc(Cc3ccc(-c4nc(C(F)(F)F)cn4C(C)C)cc3)c2n1 [Compound 54, 2-(4-cyclopropyl-6-methoxy-pyrimidin-5-yl)-7-[[4-[1-isopropyl-4-(trifluoromethyl)imidazol-2-yl]phenyl]methyl]-5H-pyrrolo[3,2-d]pyrimidine]
	30 to 100			250 to 10000	100 to 250	COc1ncnc(C2CC2)c1-c1ncc2[nH]cc(C(c3ccc(-c4nc(C(F)(F)F)cn4C)cc3)C(C)C)c2n1 (centres unmarked) [Compound 145]
	100 to 10000			250 to 10000	250 to 10000	CC(C)c1ccccc1-c1ncc2[nH]cc(Nc3ccc(-c4nc(C(F)(F)F)cn4C)cc3)c2n1 [Compound 62, 2-(2-isopropylphenyl)-N-[4-[1-methyl-4-(trifluoromethyl)imidazol-2-yl]phenyl]-5H-pyrrolo[3,2-d]pyrimidin-7-amine]
	100 to 10000			250 to 10000	250 to 10000	COc1ncnc(C2CC2)c1-c1ncc2[nH]cc(C(O)c3ccc(-c4nc(C(F)(F)F)cn4C(C)C)cc3)c2n1 (centres unmarked) [Compound 59, [2-(4-cyclopropyl-6-methoxy-pyrimidin-5-yl)-5H-pyrrolo[3,2-d]pyrimidin-7-yl]-[4-[1-isopropyl-4-(trifluoromethyl)imidazol-2-yl]phenyl]methanol]
	≥ 10000			250 to 10000	250 to 10000	CC(C)c1ccccc1-c1ncc2[nH]cc(C(=O)c3ccc(-c4nc(C(F)(F)F)cn4C)cc3)c2n1 [Compound 86, [2-(2-isopropylphenyl)-5H-pyrrolo[3,2-d]pyrimidin-7-yl]-[4-[1-methyl-4-(trifluoromethyl)imidazol-2-yl]phenyl]methanone]
	≥ 10000			≥ 10000	≥ 10000	Cn1cc(C(F)(F)F)nc1-c1ccc(C(=O)c2c[nH]c3cnc(-c4cccnc4C4CC4)cc23)cc1 [Compound 53]
	100 to 10000			250 to 10000	100 to 250	Cn1cc(C(F)(F)F)nc1-c1ccc(C(C)(O)c2c[nH]c3cnc(-c4cccnc4OCC(F)(F)F)nc23)cc1 (single isomer, unassigned) [Compound 22]
	100 to 10000			≥ 10000	250 to 10000	Cn1cc(C(F)(F)F)nc1-c1ccc(Cc2c[nH]c3cnc(-c4ccccc4CO)nc23)cc1 [Compound 72]
	< 30			≥ 10000	< 100	Cn1cc(C(F)(F)F)nc1-c1ccc(Cc2c[nH]c3cnc(-c4c(OC5CC5)ncnc4C4CC4)nc23)cc1 [Compound 155]
	100 to 10000			≥ 10000	250 to 10000	CC(C)n1cc(C(F)(F)F)nc1-c1ccc(C(O)c2c[nH]c3cnc(-c4cccnc4OC(F)F)nc23)cc1 (centres unmarked) [Compound 52, [2-[2-(difluoromethoxy)-3-pyridyl]-5H-pyrrolo[3,2-d]pyrimidin-7-yl]-[4-[1-isopropyl-4-(trifluoromethyl)imidazol-2-yl]phenyl]methanol]
< 100				≥ 10000	< 100	COc1ncnc(C2CC2)c1-c1ncc2c(n1)c(Cc1ccc(-c3nc(C(F)(F)F)cn3C)cc1)nn2C [Compound 26, 5-(4-cyclopropyl-6-methoxy-pyrimidin-5-yl)-1-methyl-3-[[4-[1-methyl-4-(trifluoromethyl)imidazol-2-yl]phenyl]methyl]pyrazolo[4,3-d]pyrimidine]
	≥ 10000			≥ 10000	≥ 10000	CN(C)Cc1ccccc1-c1ncc2[nH]cc(Cc3ccc(-c4nc(C(F)(F)F)cn4C)cc3)c2n1 [Compound 9]
< 100	< 30				< 100	COc1ncnc(C2CC2)c1-c1ncc2[nH]nc(Cc3ccc(-c4nc(C(F)(F)F)cn4C)cc3)c2n1 [Compound 5, 5-(4-cyclopropyl-6-methoxy-pyrimidin-5-yl)-3-[[4-[1-methyl-4-(trifluoromethyl)imidazol-2-yl]phenyl]methyl]-1H-pyrazolo[4,3-d]pyrimidine]
	< 30			≥ 10000	< 100	CC(C)Oc1ncccc1-c1ncc2[nH]cc(Cc3ccc(-c4nc(C(F)(F)F)cn4C)cc3)c2n1 [Compound 55, 2-isopropoxy-3-[7-([4-[1-methyl-4-(trifluoromethyl)imidazol-2-yl]phenyl]methyl)-5H-pyrrolo[3,2-d]pyrimidin-2-yl]pyridine]
	100 to 10000			250 to 10000	250 to 10000	CC(C)c1ccccc1-c1ncc2[nH]cc(CN3CCN(c4nc(C(F)(F)F)cn4C)CC3)c2n1 [Compound 35, 2-(2-isopropylphenyl)-7-[[4-[1-methyl-4-(trifluoromethyl)imidazol-2-yl]piperazin-1-yl]methyl]-5H-pyrrolo[3,2-d]pyrimidine]
	≥ 10000			≥ 10000	≥ 10000	COc1ncnc(C2CC2)c1-c1ncc2[nH]cc(C(O)c3ccc(-c4nc(C(F)(F)F)cn4C4CN(C)C4)cc3)c2n1 (centres unmarked) [Compound 7, (2-(4-cyclopropyl-6-methoxypyrimidin-5-yl)-5H-pyrrolo[3,2-d]pyrimidin-7-yl)(4-(1-(1-methylazetidin-3-yl)-4-(trifluoromethyl)-1H-imidazol-2-yl)phenyl)methanol]
	100 to 10000			≥ 10000	250 to 10000	CN(c1ccc(-c2nc(C(F)(F)F)cn2C)cc1)c1c[nH]c2cnc(-c3ccccc3C3CC3)nc12 [Compound 13, 2-(2-cyclopropylphenyl)-N-methyl-N-[4-[1-methyl-4-(trifluoromethyl)imidazol-2-yl]phenyl]-5H-pyrrolo[3,2-d]pyrimidin-7-amine]
	100 to 10000			≥ 10000	250 to 10000	CC(C)c1ccccc1-c1ncc2[nH]cc(CN3CCC(c4nc(C(F)(F)F)cn4C)CC3)c2n1 [Compound 6, 2-(2-isopropylphenyl)-7-[[4-[1-methyl-4-(trifluoromethyl)imidazol-2-yl]-1-piperidyl]methyl]-5H-pyrrolo[3,2-d]pyrimidine]
100 to 250				≥ 10000	250 to 10000	COc1ncnc(C2CC2)c1-c1ncc2nn(C)c(Cc3ccc(-c4nc(C(F)(F)F)cn4C)cc3)c2n1 [Compound 24, 5-(4-cyclopropyl-6-methoxy-pyrimidin-5-yl)-2-methyl-3-[[4-[1-methyl-4-(trifluoromethyl)imidazol-2-yl]phenyl]methyl]pyrazolo[4,3-d]pyrimidine]
